Reference: US20070287719A1, “Salts, Prodrugs and Formulations of 1-[5-(4-Amino-7-Isopropyl-7H-Pyrrolo[2,3-D]Pyrimidine-5-Carbonyl)-2-Methoxy-Phenyl]-3-(2,4-Dichloro-Phenyl)-Urea” (Pfizer Inc, priority 2005, published 2007)

Key:
[1] = Hygroscopicity of salt forms; format: physicochemical; settings: at 90 percent relative humidity at ambient temperature
[2] = Plasma pharmacokinetics after oral dosing, dog; format: in vivo; settings: Dog (n = 3), 30 mg Active Agent/kg
Method: (§1) Alternatively, the compositions of the present invention, when dosed orally to a human or other mammal, provide an AUC inhibitor concentration in the blood (herein referred to as a plasma AUC) that is at least about 4 fold that observed when a control composition comprising all equivalent quantity of undispersed drug is dosed. It is noted that such compositions can also be said to have a relative bioavailability of about 4. Preferably, the compositions of the present invention, when dosed orally to a human or other mammal, provide an AUC inhibitor concentration in the blood that is at least about 6 fold, more preferably at least about 10 fold, and even more preferably at least about 20 fold that observed when a control composition comprising an equivalent quantity of undispersed drug is dosed. […] An exemplary dosing vehicle would be a suspension solution of water containing 0.5 wt percent […] (such as METHOCEL) and 0.16 wt percent of the surfactant polyoxyethylene 20 sorbitan monooleate (such as TWEEN 80). Thus, the compositions of the present invention can be evaluated in either in vitro or in vivo tests, or both. […]
(§2) Relative bioavailability of inhibitor in the dispersions of the present invention can be tested in vivo in animals or humans using conventional methods for making such a determination. […] In an in vivo crossover study a “test composition” of inhibitor and polymer is dosed to half a group of test subjects and, after an appropriate washout period (e.g., one week) the same subjects are dosed with a “control composition” that comprises an equivalent quantity of inhibitor as the “test composition” (but with no polymer present). […] The relative bioavailability is measured as the concentration in the blood (serum or plasma) versus time area under the curve (AUC) determined for the test group divided by the AUC in the blood provided by the control composition. Preferably, this test/control ratio is determined for each subject, and then the ratios are averaged over all subjects in the study. […]

[3] = target: T1, fully activated recombinant GST-TIE2 construct (Homo sapiens, UniProt Q02763); experiment: Tie-2 tyrosine kinase inhibition, GST-Tie-2 fusion protein, PGT plate ELISA; format: biochemical
T1 construct: made in house; host or cells: insect cells (baculovirus)
Method: (§3) The crystalline and non-crystalline forms and formulations of 1-[5-(4-Amino-7-isopropyl-7H-pyrrolo[2,3-d[pyrimidine-5-carbonyl)-2-methoxy-phenyl]-3-(2 4-dichloro-phenyl)-urea are selective inhibitors of the tyrosine kinases, Tie-2, TrkA and related family member TrkB. The potentcy of these forms and formulations of the present invention at the tyrosine kinases may be determined using the following assays.
Inhibition of Tie-2 tyrosine kinase activity is measured in 96-well Maxisorp plates (Nunc) coated with poly-Glu-Tyr (PGT 4:1 Sigma) by the addition of 100 μL/well of a 25 μg/mL solution of PGT in PBS. Plates are incubated at 37° C. overnight, and transferred to 4° C. until use. Prior to compound testing, appropriate dilutions of compounds are made in 96-well polypropylene plates. […] GST-Tie-2 would be previously isolated from insect cells infected with GST-Tie-2 baculoviruses, and used at concentrations determined to provide OD450 signals of approximately 1.0 in the presence of ATP and the absence of chemical inhibitors. […] The bound HRP-PY20 antibody can be detected by the addition of 70 μL/well TMB microwell substrate (KPL), and color development terminated by the addition of an equal volume of 0.9 M H2SO4. The background signal from wells lacking ATP can be subtracted from all ATP-stimulated wells, and IC50 values calculated.

[4] = In vitro dissolution test in Model Fasted Duodenal (MFD) solution; format: physicochemical; settings: 1.8 mL MFD; 0.36 mg free base active agent or 1.44 mg active agent in spray dry dispersion
Method: The compositions comprising the active agent and concentration-enhancing polymer provide enhanced concentration of the dissolved inhibitor in in vitro dissolution tests. It has been determined that enhanced drug concentration in in vitro dissolution tests in Model Fasted Duodenal (MFD) solution or Phosphate Buffered Saline (PBS) is a good indicator of in vivo performance and bioavailability. An appropriate PBS solution is an aqueous solution comprising 20 mM sodium phosphate (Na2HPO4), 47 mM potassium phosphate (KH2PO4), 87 mM sodium chloride (NaCl), and 0.2 mM potassium chloride (KCl), adjusted to pH 6.5 with sodium hydroxide (NaOH). An appropriate MFD solution is the same PBS solution wherein additionally is present 7.3 mM sodium taurocholic acid and 1.4 mM of 1-palmitoyl-2-oleyl-sn-glycero-3-phosphocholine. In particular, a composition of the present invention can be dissolution-tested by adding it to MFD or PBS solution and agitating to promote dissolution. […]
The concentration of dissolved inhibitor is typically measured as a function of time by sampling the test medium and plotting inhibitor concentration in the test medium vs. time so that the MDC can be ascertained. The MDC is taken to be the maximum value of dissolved inhibitor measured over the duration of the test. […]

[5] = Plasma pharmacokinetics after oral dosing, rat; format: in vivo; settings: Rat (n = 4), 100 mg Active Agent/kg
Method: as §1, §2

[6] = target: inactive (unphosphorylated) TIE2 kinase (Homo sapiens, UniProt Q02763); experiment: Inhibition of inactive TIE2 kinase; format: biochemical
From the text: as §3

[7] = target: T2, recombinant human erbB-TIE2 chimeric receptor overexpressed in C6 rat glioma cells (Homo sapiens, UniProt Q02763); experiment: Cell-based TIE-2 kinase activity of chimeric receptor
T2 construct: erbB extracellular domain with TIE2 intracellular domain; extracellular domain of human EGFR (erbB); expressed in transfected cells; host or cells: C6 rat glioma cells
T2 sequence (Q02763 770-1124 limits assumed, change not shown): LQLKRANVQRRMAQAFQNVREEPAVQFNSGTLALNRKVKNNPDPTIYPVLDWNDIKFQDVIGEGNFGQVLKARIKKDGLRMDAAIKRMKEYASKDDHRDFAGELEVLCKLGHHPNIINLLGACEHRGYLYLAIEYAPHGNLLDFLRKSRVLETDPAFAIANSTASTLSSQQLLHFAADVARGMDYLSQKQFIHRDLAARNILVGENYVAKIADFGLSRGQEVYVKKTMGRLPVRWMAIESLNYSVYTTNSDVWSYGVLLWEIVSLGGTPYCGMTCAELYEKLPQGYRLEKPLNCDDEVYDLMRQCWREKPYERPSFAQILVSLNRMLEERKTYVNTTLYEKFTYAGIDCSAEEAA

inactive (unphosphorylated) TIE2 kinase, sequence (Q02763 23-1124): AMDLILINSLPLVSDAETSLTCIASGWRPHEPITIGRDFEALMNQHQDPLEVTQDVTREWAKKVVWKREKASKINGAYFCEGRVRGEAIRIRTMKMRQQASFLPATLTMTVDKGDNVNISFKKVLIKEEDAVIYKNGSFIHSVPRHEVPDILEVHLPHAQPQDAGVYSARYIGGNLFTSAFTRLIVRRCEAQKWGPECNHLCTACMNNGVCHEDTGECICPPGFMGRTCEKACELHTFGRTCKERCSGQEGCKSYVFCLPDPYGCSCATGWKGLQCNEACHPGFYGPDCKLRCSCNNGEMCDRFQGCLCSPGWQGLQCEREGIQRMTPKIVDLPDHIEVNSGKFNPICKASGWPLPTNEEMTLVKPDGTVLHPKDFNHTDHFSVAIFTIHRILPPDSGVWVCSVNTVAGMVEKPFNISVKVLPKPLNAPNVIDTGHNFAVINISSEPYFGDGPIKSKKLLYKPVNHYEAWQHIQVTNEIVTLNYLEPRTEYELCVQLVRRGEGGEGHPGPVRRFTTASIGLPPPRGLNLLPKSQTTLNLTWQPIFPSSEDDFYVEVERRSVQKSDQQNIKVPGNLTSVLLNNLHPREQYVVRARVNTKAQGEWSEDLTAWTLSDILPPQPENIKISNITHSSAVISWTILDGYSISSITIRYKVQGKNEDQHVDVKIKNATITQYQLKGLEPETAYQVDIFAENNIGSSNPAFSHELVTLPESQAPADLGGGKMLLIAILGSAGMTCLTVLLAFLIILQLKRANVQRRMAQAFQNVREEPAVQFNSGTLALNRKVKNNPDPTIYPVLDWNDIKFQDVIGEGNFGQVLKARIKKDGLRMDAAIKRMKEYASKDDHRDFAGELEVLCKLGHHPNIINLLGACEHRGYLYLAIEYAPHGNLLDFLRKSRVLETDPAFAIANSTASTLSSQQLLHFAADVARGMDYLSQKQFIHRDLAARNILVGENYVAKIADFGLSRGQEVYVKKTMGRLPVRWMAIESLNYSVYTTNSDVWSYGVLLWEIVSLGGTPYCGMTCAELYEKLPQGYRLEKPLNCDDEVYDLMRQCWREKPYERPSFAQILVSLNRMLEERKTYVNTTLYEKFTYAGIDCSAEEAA
T1 sequence (Q02763 23-1124): as above

COc1ccc(C(=O)c2cn(C(C)C)c3ncnc(N)c23)cc1NC(=O)Nc1ccc(Cl)cc1Cl.CS(=O)(=O)O [Example 2, 1-[5-(4-Amino-7-isopropyl-7H-pyrrolo[2,3-d]pyrimidine-5-carbonyl)-2-methoxy-phenyl]-3-(2,4-dichloro-phenyl)-urea•Mesylate (Form B)]
Hygroscopicity [1]: 7.9 percent (by weight)

COc1ccc(C(=O)c2cn(C(C)C)c3ncnc(N)c23)cc1NC(=O)Nc1ccc(Cl)cc1Cl.O=S(=O)(O)c1ccccc1 [Example 8, 1-[5-(4-Amino-7-isopropyl-7H-pyrrolo[2,3-d]pyrimidine-5-carbonyl)-2-methoxy-phenyl]-3-(2,4-dichloro-phenyl)-urea•Besylate]
Hygroscopicity [1]: 2.0 percent (by weight)

COc1ccc(C(=O)c2cn(C(C)C)c3ncnc(N)c23)cc1NC(=O)Nc1ccc(Cl)cc1Cl.O=P(O)(O)O [Example 1, 1-[5-(4-Amino-7-isopropyl-7H-pyrrolo[2,3-d]pyrimidine-5-carbonyl)-2-methoxy-phenyl]-3-(2,4-dichloro-phenyl)-urea•Phosphate]
Hygroscopicity [1]: 0.8 percent (by weight)

COc1ccc(C(=O)c2cn(C(C)C)c3ncnc(N)c23)cc1NC(=O)Nc1ccc(Cl)cc1Cl.CS(=O)(=O)O [Example 3, 1-[5-(4-Amino-7-isopropyl-7H-pyrrolo[2,3-d]pyrimidine-5-carbonyl)-2-methoxy-phenyl]-3-(2,4-dichloro-phenyl)-urea•Mesylate (Polymorph A)]
Hygroscopicity [1]: 1.6 percent (by weight)

COc1ccc(C(=O)c2cn(C(C)C)c3ncnc(N)c23)cc1NC(=O)Nc1ccc(Cl)cc1Cl [1-[5-(4-amino-7-isopropyl-7H-pyrrolo[2,3-d]pyrimidine-5-carbonyl)-2-methoxy-phenyl]-3-(2,4-dichloro-phenyl)-urea]
Cmax [2]: 347 ± 556 ng/mL
Tmax [2]: 4 ± 2 h
AUC(0-t) ([2]; read-out: AUC0-24): 2810 ± 4550 ng·h/mL
IC50 [3]: 280 nM
AUC (aqueous concentration versus time) [4]: 100 µg·min/mL
MDC (Maximum Drug Concentration) [4]: 3 µg/mL
Cmax [5]: 191 ± 153 ng/mL
Tmax [5]: 4.5 ± 1 h
AUC(0-t) ([5]; read-out: AUC0-24): 1300 ± 940 ng·h/mL
Ki [6]: 23 nM
IC50 [7]: 4.67 nM

COc1ccc(C(=O)c2cn(C(C)C)c3ncnc(N)c23)cc1NC(=O)Nc1ccc(Cl)cc1Cl.Cc1ccc(S(=O)(=O)O)cc1 [Example 9, 1-[5-(4-Amino-7-isopropyl-7H-pyrrolo[2,3-d]pyrimidine-5-carbonyl)-2-methoxy-phenyl]-3-(2,4-dichloro-phenyl)-urea•Tosylate]
Hygroscopicity [1]: 1.1 percent (by weight)
